Reference: ChEMBL document CHEMBL4840359, “N-Terminus to Arginine Side-Chain Cyclization of Linear Peptidic Neuropeptide Y Y4 Receptor Ligands Results in Picomolar Binding Constants” (J Med Chem, 2021)

Columns and labels:
[1] = Stability in human plasma assessed as intact peptide measured after 2 hr at 37 degC by RP-HPLC analysis; assay type: ADME, cell-free; conditions: read-out: Stability
[2] = Stability of the compound in pH 7.4 PBS buffer measured up to 48 hrs by reversed-phase HPLC analysis; assay type: physicochemical; conditions: pH 7.4, 48 h
[3] = target: T1, Neuropeptide Y receptor type 1 (Homo sapiens, UniProt P25929); experiment: Displacement of [3H]UR-MK299 from human neuropeptide Y Y1 receptor in human SK-N-MC cells measured after 90 mins by scintillation counting analysis; assay type: cell-based
T1 sequence (P25929 whole entry): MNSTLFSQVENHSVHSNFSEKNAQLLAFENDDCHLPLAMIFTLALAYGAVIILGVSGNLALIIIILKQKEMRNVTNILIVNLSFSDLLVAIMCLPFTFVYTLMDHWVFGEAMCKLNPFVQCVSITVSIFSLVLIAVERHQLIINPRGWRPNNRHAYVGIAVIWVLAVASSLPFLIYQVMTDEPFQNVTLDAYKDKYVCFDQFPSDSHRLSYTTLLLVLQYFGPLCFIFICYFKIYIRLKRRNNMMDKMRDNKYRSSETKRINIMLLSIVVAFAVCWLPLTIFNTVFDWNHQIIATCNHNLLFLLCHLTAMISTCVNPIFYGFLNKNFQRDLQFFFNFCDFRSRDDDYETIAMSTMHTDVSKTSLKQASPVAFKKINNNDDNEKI

[4] = target: T2, Neuropeptide Y receptor type 4 (Homo sapiens, UniProt P50391); experiment: Displacement of [3H]UR-KK200 from human neuropeptide Y Y4 receptor expressed in CHO-mtAEQ cells co-expressing Gqi5 assessed as fold change in affinity measured after 90 mins by scintillation counting analysis relative to Ac-Arg-Tyr-Arg-Leu-Arg-Tyr-NH2; assay type: cell-based; conditions: filed as agonist
[5] = target: T2, Neuropeptide Y receptor type 4; experiment: Intrinsic activity at human neuropeptide Y Y4 receptor expressed in HEK293T cells co-expressing CRE-controlled gene reporter firefly luciferase assessed as relative luminescence measured after 15 mins relative to hPP; assay type: functional, cell-based
[6] = target: T2, Neuropeptide Y receptor type 4; experiment: Intrinsic activity at human neuropeptide Y Y4 receptor expressed in HEK293T-ARRB1 cells assessed as stimulation of beta-arrestin 1 recruitment by multimode plate reader relative to hPP; assay type: functional, cell-based
[7] = Stability in human plasma assessed as intact peptide measured after 1 hr at 37 degC by RP-HPLC analysis; assay type: ADME, cell-free; conditions: read-out: Stability
Homo sapiens [8] = organism: Homo sapiens; experiment: Selectivity ratio, Ki for displacement of [3H]propionyl-pNPY from human neuropeptide Y Y5 receptor in human HEC-1B cells measured after 90 mins by scintillation counting analysis to Ki for displacement of [3H]UR-KK200 from human neuropeptide Y Y4 receptor expressed in CHO-mtAEQ cells co-expressing Gqi5 measured after 90 mins by scintillation counting analysis; assay type: cell-based
[9] = Stability in human plasma assessed as intact peptide measured after 6 hr at 37 degC by RP-HPLC analysis; assay type: ADME, cell-free; conditions: read-out: Stability
[10] = Stability in human plasma assessed as half life at 37 degC by RP-HPLC analysis; assay type: ADME, cell-free
[11] = Stability in human plasma assessed as intact peptide in presence of rami-pril measured at 50 uM after 24 hrs at 37 degC by LC-HRMS analysis; assay type: ADME, cell-free
[12] = target: T2, Neuropeptide Y receptor type 4; experiment: Displacement of [3H]UR-KK200 from human neuropeptide Y Y4 receptor expressed in CHO-mtAEQ cells co-expressing Gqi5 measured after 90 mins by scintillation counting analysis; assay type: cell-based
[13] = target: T2, Neuropeptide Y receptor type 4; experiment: Agonist activity at human neuropeptide Y Y4 receptor expressed in HEK293T-ARRB1 cells assessed as stimulation of beta-arrestin 1 recruitment by multimode plate reader; assay type: functional, cell-based; conditions: read-out: EC50
Homo sapiens [14] = organism: Homo sapiens; experiment: Selectivity ratio, Ki for displacement of [3H]UR-MK299 from human neuropeptide Y Y2 receptor expressed in CHO cells measured after 90 mins by scintillation counting analysis to Ki for displacement of [3H]UR-KK200 from human neuropeptide Y Y4 receptor expressed in CHO-mtAEQ cells co-expressing Gqi5 measured after 90 mins by scintillation counting analysis; assay type: cell-based
[15] = target: T3, Neuropeptide Y receptor type 5 (Homo sapiens, UniProt Q15761); experiment: Displacement of [3H]propionyl-pNPY from human neuropeptide Y Y5 receptor in human HEC-1B cells measured after 90 mins by scintillation counting analysis; assay type: cell-based, HEC-1B cell line
T3 sequence (Q15761 whole entry): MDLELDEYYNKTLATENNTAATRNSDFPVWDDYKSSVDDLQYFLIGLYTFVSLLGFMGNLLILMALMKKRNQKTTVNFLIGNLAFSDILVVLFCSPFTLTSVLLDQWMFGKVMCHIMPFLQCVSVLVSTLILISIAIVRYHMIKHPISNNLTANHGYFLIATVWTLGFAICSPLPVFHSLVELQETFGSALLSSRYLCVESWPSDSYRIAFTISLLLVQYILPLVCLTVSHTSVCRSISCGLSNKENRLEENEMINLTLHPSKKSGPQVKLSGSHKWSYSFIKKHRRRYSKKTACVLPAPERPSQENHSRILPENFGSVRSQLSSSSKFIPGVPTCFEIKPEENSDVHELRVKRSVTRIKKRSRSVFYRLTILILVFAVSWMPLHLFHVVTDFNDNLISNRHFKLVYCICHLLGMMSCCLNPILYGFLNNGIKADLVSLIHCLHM

[16] = target: T2, Neuropeptide Y receptor type 4; experiment: Intrinsic activity at human neuropeptide Y Y4 receptor expressed in CHO-mtAEQ cells co-expressing Gqi5 by calcium aequorin assay; assay type: functional, cell-based
Homo sapiens [17] = organism: Homo sapiens; experiment: Selectivity ratio, Ki for displacement of [3H]UR-MK299 from human neuropeptide Y Y1 receptor in human SK-N-MC cells measured after 90 mins by scintillation counting analysis to Ki for displacement of [3H]UR-KK200 from human neuropeptide Y Y4 receptor expressed in CHO-mtAEQ cells co-expressing Gqi5 measured after 90 mins by scintillation counting analysis; assay type: cell-based
[18] = target: T2, Neuropeptide Y receptor type 4; experiment: Intrinsic activity at human neuropeptide Y Y4 receptor expressed in HEK293T-ARRB2 cells assessed as stimulation of beta-arrestin 2 recruitment by multimode plate reader relative to hPP; assay type: functional, cell-based
[19] = target: T4, Neuropeptide Y receptor type 2 (Homo sapiens, UniProt P49146); experiment: Displacement of [3H]UR-MK299 from human neuropeptide Y Y2 receptor expressed in CHO cells measured after 90 mins by scintillation counting analysis; assay type: cell-based
T4 sequence (P49146 whole entry): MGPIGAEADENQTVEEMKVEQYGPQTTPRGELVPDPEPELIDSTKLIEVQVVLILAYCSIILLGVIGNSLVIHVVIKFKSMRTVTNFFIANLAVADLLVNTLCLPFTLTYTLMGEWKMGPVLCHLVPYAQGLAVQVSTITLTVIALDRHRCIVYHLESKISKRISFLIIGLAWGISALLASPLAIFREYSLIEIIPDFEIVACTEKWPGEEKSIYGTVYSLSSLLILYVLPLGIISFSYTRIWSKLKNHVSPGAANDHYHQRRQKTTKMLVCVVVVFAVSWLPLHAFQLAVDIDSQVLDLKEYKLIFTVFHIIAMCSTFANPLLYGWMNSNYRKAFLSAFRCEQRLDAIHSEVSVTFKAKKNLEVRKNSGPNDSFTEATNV

[20] = target: T2, Neuropeptide Y receptor type 4; experiment: Agonist activity at human neuropeptide Y Y4 receptor expressed in CHO-mtAEQ cells co-expressing Gqi5 by calcium aequorin assay; assay type: functional, cell-based
[21] = Stability in human plasma assessed as intact peptide measured after 30 mins at 37 degC by RP-HPLC analysis; assay type: ADME, cell-free; conditions: read-out: Stability
[22] = target: T2, Neuropeptide Y receptor type 4; experiment: Agonist activity at human neuropeptide Y Y4 receptor expressed in HEK293T-ARRB2 cells assessed as stimulation of beta-arrestin 2 recruitment by multimode plate reader; assay type: functional, cell-based
[23] = target: T2, Neuropeptide Y receptor type 4; experiment: Agonist activity at human neuropeptide Y Y4 receptor expressed in HEK293T cells co-expressing CRE-controlled gene reporter firefly luciferase assessed as relative luminescence measured after 15 mins; assay type: functional, cell-based
[24] = Stability in human plasma assessed as intact peptide measured after 24 hrs at 37 degC by RP-HPLC analysis; assay type: ADME, cell-free; conditions: read-out: Stability
[25] = Inhibition of ACE (unknown origin); parameters: species or system Homo sapiens

T2 sequence (P50391 whole entry): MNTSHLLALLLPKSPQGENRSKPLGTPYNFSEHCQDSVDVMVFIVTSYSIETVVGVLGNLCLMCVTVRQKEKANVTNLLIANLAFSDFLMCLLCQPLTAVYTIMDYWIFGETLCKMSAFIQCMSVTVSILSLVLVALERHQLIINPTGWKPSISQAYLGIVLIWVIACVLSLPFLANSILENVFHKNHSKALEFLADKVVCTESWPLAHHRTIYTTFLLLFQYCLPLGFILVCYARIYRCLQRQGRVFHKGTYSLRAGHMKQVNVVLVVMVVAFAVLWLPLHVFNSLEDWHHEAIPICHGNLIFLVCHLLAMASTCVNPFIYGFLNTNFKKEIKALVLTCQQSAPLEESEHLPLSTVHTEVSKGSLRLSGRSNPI

| remaining at 2 h [1] [%] | Ki ([3]; read-out: pKi (converted)) [nM] | fold change (FC) [4] | Intrinsic activity [5] [%] | Intrinsic activity [6] [%] | remaining at 6 h [9] [%] | half-life [10] [h] | Stability [11] | Ki ([12]; read-out: Ki) [nM] | EC50 [13] [nM] | Ki ([15]; read-out: pKi (converted)) [nM] | Intrinsic activity [16] [%] | Intrinsic activity [18] [%] | Ki ([19]; read-out: Ki) [nM] | Ki ([19]; read-out: pKi (converted)) [nM] | EC50 [20] [nM] | remaining at 0.5 h [21] [%] | Structure (SMILES) | Selectivity ratio (Homo sapiens [8]) | Selectivity ratio (Homo sapiens [14]) | Selectivity ratio (Homo sapiens [17]) | also measured |
| --- | --- | --- | --- | --- | --- | --- | --- | --- | --- | --- | --- | --- | --- | --- | --- | --- | --- | --- | --- | --- | --- |
| 52 | > 3160 | 71 | 89 | 68 | 3 | 1.9 | Stable | 0.048 | 3.6 | > 1000 | 82 | 73 | > 10000 | > 10000 | 2.69 | > 99 | CC(C)C[C@H](NC(=O)[C@@H]1CCCNC(=N)NC(=O)NCCCCNC(=O)CCC(=O)N[C@@H](CCCNC(=N)N)C(=O)N[C@@H](Cc2ccc(O)cc2)C(=O)N1)C(=O)N[C@@H](CCCNC(=N)N)C(=O)N[C@@H](Cc1ccc(O)cc1)C(N)=O | > 60000 | > 200 | > 60000 | Stability [2]: Stable; Ki ([3]; read-out: Ki): > 3000 nM; remaining at 1 h [7]: 85%; Ki ([12]; read-out: pKi (converted)): 0.0437 nM; Ki ([15]; read-out: Ki): > 3000 nM; EC50 [22]: 1.58 nM |
| 57 | > 10000 | 103 | 95 | 98 | 19 | 2.6 | Stable | 0.033 | 1 | > 1000 | 84 | 80 | > 10000 | > 10000 | 1 | 94 | CC(C)C[C@H](NC(=O)[C@@H]1CCCNC(=N)NC(=O)NCCCCNC(=O)CCC(=O)N[C@@H](CCCNC(=N)N)C(=O)N[C@@H](Cc2c[nH]c3ccccc23)C(=O)N1)C(=O)N[C@@H](CCCNC(=N)N)C(=O)N[C@@H](Cc1ccc(O)cc1)C(N)=O | > 90000 | > 300 | > 300000 | Stability [2]: Stable; Ki ([3]; sk-n-mc, read-out: Ki): > 10000 nM; EC50 [23]: 1.41 nM; remaining at 1 h [7]: 87%; Ki ([15]; read-out: Ki): > 3000 nM; EC50 [22]: 1.66 nM |
| 87 | > 10000 | 1.6 | 95 | 67 | 67 | 7.9 | Stable | 2.1 | 120 | > 10000 | 67 | 76 | > 3000 | > 3160 | 105 | 94 | CC(C)C[C@H](NC(=O)[C@H](CCCNC(=N)NC(=O)NCCCCN)NC(=O)[C@H](Cc1c[nH]c2ccccc12)NC(=O)[C@H](CCCNC(=N)N)NC(=O)CCC(=O)O)C(=O)N[C@@H](CCCNC(=N)N)C(=O)N[C@@H](Cc1ccc(O)cc1)C(N)=O | > 4700 | > 1400 | > 4700 | remaining at 24 h [24]: 3%; Ki ([3]; sk-n-mc, read-out: Ki): > 10000 nM; EC50 [23]: 12 nM; Ki ([12]; read-out: pKi (converted)): 1.95 nM; EC50 [22]: 162 nM |
| – | – | – | – | – | – | – | – | – | – | – | – | – | – | – | – | – | CCOC(=O)[C@H](CCc1ccccc1)N[C@@H](C)C(=O)N1[C@H](C(=O)O)C[C@@H]2CCC[C@@H]21 | – | – | – | pIC50 [25]: 7.6 |
| 91 | > 10000 | 2.6 | 88 | 75 | 49 | 5.9 | Stable | 13 | 160 | > 10000 | 70 | 83 | > 10000 | > 10000 | 204 | > 99 | CC(C)C[C@H](NC(=O)[C@H](CCCNC(=N)NC(=O)NCCCCN)NC(=O)[C@H](Cc1ccc(O)cc1)NC(=O)[C@H](CCCNC(=N)N)NC(=O)CCC(=O)O)C(=O)N[C@@H](CCCNC(=N)N)C(=O)N[C@@H](Cc1ccc(O)cc1)C(N)=O | > 7600 | > 7600 | > 7600 | remaining at 24 h [24]: 3%; Ki ([3]; sk-n-mc, read-out: Ki): > 10000 nM; EC50 [23]: 17 nM; Ki ([12]; read-out: pKi (converted)): 1.26 nM; EC50 [22]: 141 nM |
